Test results from paper PMC7024211, “Antifouling Napyradiomycins from Marine-Derived Actinomycetes Streptomyces aculeolatus” (Marine Drugs, 2020).

Assays:
[1] = system: M. hydrocarbonoclasticus; experiment: Biofilm inhibition assay (crystal violet); assay type: cell-based, Marinobacter hydrocarbonoclasticus; settings: 31.25 µg/mL
Description: (§1) In a 96-well plate, biofilm grown cultures of M. hydrocarbonoclasticus and C. marina were incubated with napyradiomycins (1–12) at a concentration of 31.25 µg/mL. After discarding the media, biofilm inhibition was determined from OD600 measurements of crystal violet stained cells resuspended from the plate bottom with acetic acid.
(§2) Five marine bacterial species were used as models to assess antimicrofouling activity. The biofilm-forming marine bacteria Marinobacter hydrocarbonoclasticus DSM 8798 (ATCC 49840), Cobetia marina DSM 4741, Phaeobacter inhibens DSM 17,395, and Pseusooceanicola batsensis DSM 15,984 were obtained from DSMZ (Leibniz Institute DSMZ—German collection of Microorganisms and Cell Cultures) and Micrococcus luteus. Cultures were routinely grown in liquid marine broth (Carl Roth GmbH, Karlsruhe, Germany) with agitation (180 rpm) or on agar-supplemented marine broth, at 28 °C (M. hydrocarbonoclasticus and C. marina) or 30 °C (P. inhibens and P. batsensis). M. luteus was maintained in Brain Heart Infusion broth (BHI, Becton Dickinson, GmbH, Heidelberg, Germany) with agitation (180 rpm) or on agar-supplemented BHI, at 37 °C.
(§3) The antibiofilm activity of napyradiomycins (1–12) against the five marine bacterial species was assessed in 96-well polystyrene flat bottom microplates (Nunclon Delta Surface, Thermo Scientific, Roskilde, Denmark) as previously reported. For initial screening, bacterial overnight cultures were diluted to an optical density (OD600nm) value of 0.2 and incubated statically at 28 °C (M. hydrocarbonoclasticus, C. marina), 30 °C (P. inhibens, P. batsensis) or 37 °C (M. luteus) in the 96-well microplate in the presence or absence of 31.25 µg/mL of napyradiomycins, solubilized in DMSO. After 24 h (M. hydrocarbonoclasticus, C. marina) or 48 h (P. batsensis, P. inhibens, M. luteus) incubation, the OD600nm was determined. The planktonic cells and media were discarded, and the wells were washed twice with deionized water. The biofilm was fixed for 1 h at 60 °C and stained with crystal violet 0.06% for 10 min. The dye was discarded, and the wells were again washed twice with deionized water. The stained biofilm was solubilized with 30% acetic acid and the OD600nm was determined. […] The percentage of biofilm inhibition was calculated as the amount of biofilm relative to that of the bacterial species without added compounds (with the same amount of DMSO added). CuSO4 (5 μM), a potent antifouling agent used in antifouling paints, was used as reference.
(§4) All assays were performed in triplicate, and results are representative of the average and standard error of the mean (SEM). Statistical analysis was performed in GraphPad Prism 8.0.2, using one-way ANOVA followed by a Dunnett’s multiple comparisons test against the control (species grown with the same amount of DMSO added).

[2] = system: P. batsensis; experiment: Biofilm inhibition assay (crystal violet); assay type: cell-based, Pseudooceanicola batsensis; settings: Pseudooceanicola batsensis
Description: as §1, §2, §3, §4

[3] = system: P. batsensis; experiment: Bacterial growth inhibition assay (OD600nm); assay type: cell-based, Pseudooceanicola batsensis
Description: As a first screening approach, liquid cultures of M. hydrocarbonoclasticus, and C. marina in a 96-well format were analyzed for bacterial growth inhibition by percent decrease in OD600 after incubation with napyradiomycins (1–12) at 31.25 µg/mL.
as §2
The antibacterial activity of the napyradiomycins (1–12) was assessed in 96-well polystyrene flat bottom microplates (Nunclon Delta Surface, Thermo Scientific, Roskilde, Denmark) following previously reported procedures. For initial screening, bacterial overnight cultures were diluted to an optical density (OD600nm) of 0.2 and incubated statically at 28 °C (M. hydrocarbonoclasticus, C. marina), 30 °C (P. inhibens, P. batsensis) or 37 °C (M. luteus) in a 96-well microplate in the presence or absence of 31.25 µg/mL of the napyradiomycins, solubilized in DMSO. After 24 h (M. hydrocarbonoclasticus, C. marina) or 48 h (P. batsensis, P. inhibens, M. luteus) incubation, the OD600nm was determined (Molecular Devices, Spectra Max 190). […] The percentage of growth inhibition was calculated as the amount of growth relative to that of the bacterial species without added compounds (with the same amount of DMSO added). CuSO4 (5 μM), a potent antifouling agent used in antifouling paints, was used as reference.
as §4, with “8.0.2 (San Diego, CA, USA),” for “8.0.2,”

Which results are given for `CC(C)=CCCC(C)=CCC12OC(C)(C)C(Cl)CC1(Cl)C(=O)c1c(O)cc(O)cc1C2=O` (stereo not shown) [Napyradiomycin 1, napyradiomycin A1]?
% Biofilm Inhibition ± SEM M. hydrocarbonoclasticus [1]: N.I.; inhibition at 0.98 µg/mL ([2]; 0.98 µg/mL, read-out: % inhibition of biofilm formation P. batsensis): 4.3 ± 4.3%; inhibition at 1.95 µg/mL ([2]; 1.95 µg/mL, read-out: % inhibition of biofilm formation P. batsensis): 17.7 ± 0.8%; inhibition at 3.91 µg/mL ([2]; 3.91 µg/mL, read-out: % inhibition of biofilm formation P. batsensis): 38.1 ± 0.6%; inhibition at 7.81 µg/mL ([2]; 7.81 µg/mL, read-out: % inhibition of biofilm formation P. batsensis): 28.4 ± 2.8%; inhibition at 15.6 µg/mL ([2]; 15.6 µg/mL, read-out: % inhibition of biofilm formation P. batsensis): 86.9 ± 1%; inhibition at 31.25 µg/mL ([2]; 31.25 µg/mL, read-out: % Biofilm Inhibition ± SEM P. batsensis): 87.2 ± 0.1%; % growth inhibition P. batsensis ([3]; 0.98 µg/mL): N.I.; % growth inhibition P. batsensis ([3]; 1.95 µg/mL): N.I.; % growth inhibition P. batsensis ([3]; 3.91 µg/mL): N.I.; inhibition at 7.81 µg/mL ([3]; Pseudooceanicola batsensis, 7.81 µg/mL): 47.4 ± 0.3%; inhibition at 15.6 µg/mL ([3]; Pseudooceanicola batsensis, 15.60 µg/mL): 62.7 ± 0.6%; inhibition at 31.25 µg/mL ([3]; Pseudooceanicola batsensis, 31.25 µg/mL): 53.9 ± 0.3%
